Values quoted from earlier work, collected in patent US20230157281A1, “COMPOSITIONS AND METHODS FOR REPELLING ANIMALS FROM AN OBJECT” (Texas Tech University System, priority 2020, published 2023).
Where two headings read alike, the source gives them in different places.

Columns and labels:
cats [1] = tested on: cats
cats [2] = conditions: preliminary data from another study; dosage not detailed

Row | SMILES | use of litter box (cats [1]; added to the litter at 50 μg/kg of litter) | use of litter box (cats [1]; substance used in litter, result in words) | interest shown by male and female cats (cats [2]) | use of litter box (cats [1]; substance used in litter, result in words, listed as I-felinine)
1 | CC(C)(S)CCO [MMB, 3-Mercapto-3-Methyl Butanol] | did not alter the use of litterbox | did not increase the use of litter box | showed interests | 
2 | CC(C)(CCO)SC[C@H](N)C(=O)O [felinine] |  |  |  | attract cats to eliminate in the litter box
